From PubChem BioAssay AID328 (DTP/NCI, 2004)
Where “and” joins values, the source holds several entries; their conditions need not be identical. Equal entries are not always repeated. Inconclusive results and toxic doses are left out.

System: BDF1 mice, P388 leukemia ip, median survival T/C
Assay: NCI In Vivo Anticancer Drug Screen. Data for tumor model P388 Leukemia (intraperitoneal) in B6D2F1 (BDF1) mice
Settings: endpoint: median survival time, higher = longer survival
Outline: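 Steps: implant the tumour, treat one group with compound and another with vehicle, record survival, then divide treated by control.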

COc1cccc2c1C(=O)c1c(O)c3c(c(O)c1C2=O)C[C@@](O)(C(C)=O)C[C@@H]3OC1CC(N)C(O)C(C)O1 (stereo partly specified)
T/C (dose: 0.03 mg/kg/injection, schedule: Q01DX010 (ip), vehicle: saline): 108 % of control
T/C (dose: 0.06 mg/kg/injection, schedule: Q## X020 (ip), vehicle: saline): 108 % of control
T/C (dose: 0.13 mg/kg/injection, schedule: Q01DX010 (ip), vehicle: saline): 150 % of control
T/C (dose: 0.13 mg/kg/injection, schedule: Q03HX024 (ip), vehicle: saline): 200 % of control
T/C (dose: 0.13 mg/kg/injection, schedule: Q## X020 (ip), vehicle: saline): 100 % of control
T/C (dose: 0.21 mg/kg/injection, schedule: Q03HX024 (ip), vehicle: saline): 210 % of control
T/C (dose: 0.21 mg/kg/injection, schedule: Q## X010 (ip), vehicle: saline): 190 % of control
T/C (dose: 0.21 mg/kg/injection, schedule: Q## X020 (ip), vehicle: saline): 195 % of control
T/C (dose: 0.25 mg/kg/injection, schedule: Q01DX009 (ip), vehicle: saline): 208 % of control
T/C (dose: 0.25 mg/kg/injection, schedule: Q01DX010 (ip), vehicle: clinical formulation): 159 % of control
T/C (dose: 0.36 mg/kg/injection, schedule: Q03HX024 (ip), vehicle: saline): 205 % of control
T/C (dose: 0.36 mg/kg/injection, schedule: Q04DX003 (ip), vehicle: saline): 180 % of control
T/C (dose: 0.36 mg/kg/injection, schedule: Q## X020 (ip), vehicle: saline): 200 % of control
T/C (dose: 0.38 mg/kg/injection, schedule: Q01DX010 (ip), vehicle: saline): 189 % of control
T/C (dose: 0.5 mg/kg/injection, schedule: Q01DX009 (ip), vehicle: saline): 170 % of control
T/C (dose: 0.5 mg/kg/injection, schedule: Q01DX010 (ip), vehicle: clinical formulation): 168 % of control
T/C (dose: 0.5 mg/kg/injection, schedule: Q01DX010 (ip), vehicle: water): 175 % of control
T/C (dose: 0.5 mg/kg/injection, schedule: Q03HX008 (ip), vehicle: water): 181 % of control
T/C (dose: 0.5 mg/kg/injection, schedule: Q06HX004 (ip), vehicle: water): 190 % of control
T/C (dose: 0.5 mg/kg/injection, schedule: Q## X020 (ip), vehicle: saline): 100 % of control and 207 % of control
T/C (dose: 0.6 mg/kg/injection, schedule: Q03HX024 (ip), vehicle: saline): 235 % of control
T/C (dose: 0.6 mg/kg/injection, schedule: Q04DX003 (ip), vehicle: saline): 215 % of control
T/C (dose: 0.6 mg/kg/injection, schedule: Q## X010 (ip), vehicle: saline): 210 % of control
T/C (dose: 0.6 mg/kg/injection, schedule: Q## X020 (ip), vehicle: saline): 190 % of control
T/C (dose: 0.63 mg/kg/injection, schedule: Q01DX010 (ip), vehicle: saline): 195 % of control and 200 % of control
T/C (dose: 0.75 mg/kg/injection, schedule: Q01DX010 (ip), vehicle: saline): 205 % of control
T/C (dose: 0.78 mg/kg/injection, schedule: Q04DX002 (ip), vehicle: saline): 172 % of control
T/C (dose: 1.0 mg/kg/injection, schedule: Q01DX009 (ip), vehicle: saline): 108 % of control
T/C (dose: 1.0 mg/kg/injection, schedule: Q01DX010 (ip), vehicle: clinical formulation): 163 % of control
T/C (dose: 1.0 mg/kg/injection, schedule: Q01DX010 (ip), vehicle: water): 195 % of control
T/C (dose: 1.0 mg/kg/injection, schedule: Q03HX008 (ip), vehicle: water): 204 % of control
T/C (dose: 1.0 mg/kg/injection, schedule: Q03HX024 (ip), vehicle: saline): 115 % of control
T/C (dose: 1.0 mg/kg/injection, schedule: Q04DX003 (ip), vehicle: water): 115 % of control
T/C (dose: 1.0 mg/kg/injection, schedule: Q06HX004 (ip), vehicle: water): 190 % of control
T/C (dose: 1.0 mg/kg/injection, schedule: Q## X010 (ip), vehicle: saline): 200 % of control
T/C (dose: 1.0 mg/kg/injection, schedule: Q## X020 (ip), vehicle: saline): 287 % of control and 108 % of control and 209 % of control
T/C (dose: 1.25 mg/kg/injection, schedule: Q01DX009 (ip), vehicle: water): 176 % of control
T/C (dose: 1.25 mg/kg/injection, schedule: Q01DX010 (ip), vehicle: saline): 227 % of control and 215 % of control
T/C (dose: 1.3 mg/kg/injection, schedule: Q01DX009 (ip), vehicle: clinical formulation): 231 % of control
T/C (dose: 1.5 mg/kg/injection, schedule: Q01DX010 (ip), vehicle: saline): 210 % of control
T/C (dose: 1.56 mg/kg/injection, schedule: Q01DX009 (ip), vehicle: water): 157 % of control and 196 % of control
T/C (dose: 1.56 mg/kg/injection, schedule: Q04DX002 (ip), vehicle: saline): 209 % of control
T/C (dose: 1.7 mg/kg/injection, schedule: Q04DX003 (ip), vehicle: saline): 225 % of control
T/C (dose: 1.7 mg/kg/injection, schedule: Q## X010 (ip), vehicle: saline): 165 % of control
T/C (dose: 1.7 mg/kg/injection, schedule: Q## X020 (ip), vehicle: saline): 180 % of control
T/C (dose: 1.8 mg/kg/injection, schedule: Q01DX009 (ip), vehicle: water): 161 % of control
T/C (dose: 2.0 mg/kg/injection, schedule: Q01DX009 (ip), vehicle: clinical formulation): 257 % of control
T/C (dose: 2.0 mg/kg/injection, schedule: Q01DX010 (ip), vehicle: clinical formulation): 172 % of control
T/C (dose: 2.0 mg/kg/injection, schedule: Q01DX010 (ip), vehicle: water): 95 % of control
T/C (dose: 2.0 mg/kg/injection, schedule: Q03HX008 (ip), vehicle: water): 95 % of control
T/C (dose: 2.0 mg/kg/injection, schedule: Q06HX004 (ip), vehicle: water): 195 % of control
T/C (dose: 2.5 mg/kg/injection, schedule: Q01DX001 (ip), vehicle: saline): 109 % of control and 215 % of control
T/C (dose: 2.5 mg/kg/injection, schedule: Q01DX009 (ip), vehicle: water): 97 % of control
T/C (dose: 2.9 mg/kg/injection, schedule: Q04DX003 (ip), vehicle: saline): 200 % of control
T/C (dose: 3.0 mg/kg/injection, schedule: Q01DX009 (ip), vehicle: clinical formulation): 157 % of control
T/C (dose: 3.0 mg/kg/injection, schedule: Q01DX009 (ip), vehicle: water): 173 % of control
T/C (dose: 3.0 mg/kg/injection, schedule: Q01DX010 (ip), vehicle: saline): 189 % of control
T/C (dose: 3.13 mg/kg/injection, schedule: Q01DX009 (ip), vehicle: water): 90 % of control
T/C (dose: 3.13 mg/kg/injection, schedule: Q04DX002 (ip), vehicle: saline): 169 % of control and 181 % of control
T/C (dose: 4.0 mg/kg/injection, schedule: Q01DX010 (ip), vehicle: clinical formulation): 104 % of control
T/C (dose: 4.0 mg/kg/injection, schedule: Q01DX010 (ip), vehicle: water): 90 % of control
T/C (dose: 4.5 mg/kg/injection, schedule: Q01DX009 (ip), vehicle: clinical formulation): 100 % of control
T/C (dose: 5.0 mg/kg/injection, schedule: Q01DX010 (ip), vehicle: saline): 120 % of control
T/C (dose: 6.25 mg/kg/injection, schedule: Q04DX002 (ip), vehicle: saline): 100 % of control
T/C (dose: 13.33 mg/kg/injection, schedule: Q04DX003 (ip), vehicle: water): 100 % of control and 207 % of control
T/C (dose: 16.0 mg/kg/injection, schedule: Q04DX009 (ip), vehicle: water): 96 % of control
T/C (dose: 78.0 micrograms/kg/injection, schedule: Q01DX010 (ip), vehicle: saline): 165 % of control
T/C (dose: 125.0 micrograms/kg/injection, schedule: Q01DX010 (ip), vehicle: clinical formulation): 150 % of control
T/C (dose: 156.0 micrograms/kg/injection, schedule: Q01DX010 (ip), vehicle: saline): 185 % of control
T/C (dose: 250.0 micrograms/kg/injection, schedule: Q01DX010 (ip), vehicle: clinical formulation): 183 % of control
T/C (dose: 313.0 micrograms/kg/injection, schedule: Q01DX010 (ip), vehicle: saline): 185 % of control
T/C (dose: 500.0 micrograms/kg/injection, schedule: Q01DX010 (ip), vehicle: clinical formulation): 195 % of control
T/C (dose: 625.0 micrograms/kg/injection, schedule: Q01DX010 (ip), vehicle: saline): 200 % of control
T/C (dose: 1300.0 micrograms/kg/injection, schedule: Q04DX003 (ip), vehicle: water): 174 % of control
T/C (dose: 2160.0 micrograms/kg/injection, schedule: Q04DX003 (ip), vehicle: water): 162 % of control
T/C (dose: 3600.0 micrograms/kg/injection, schedule: Q04DX003 (ip), vehicle: water): 117 % of control
